The values below come from patent publication US20050239751A1, “Heterocyclic anti-viral compounds comprising metabolizable moieties and their uses” (Rigel Pharmaceuticals, Inc., priority 2004, published 2005).

Bounds are passed on as bounds.

The first test deals with HCV replicon in 5-2 Luc replicon-comprising cells. Put plainly: HCV replicon assay (luciferase; HEPC_REPLICON-LUC). The class given is cell-based, Hepatitis C virus. To be noted: Hepatitis C virus; Tables 3-12; 50% reduction in luciferase emission, 5-2 Luc replicon cells; read-out: Replicon (IC50). The source says: In one embodiment, the inhibitory activity of the metabolically active agent of the prodrug can be confirmed in a replicon assay that assesses the ability of a test compound to block or inhibit HCV replication in replicon cells. One example of a suitable replicon assay is the liver cell-line Huh 7-based replicon assay described in Lohmann et al., 1999, Science 285:110-113. A specific example of this replicon assay which utilizes luciferase translation is provided in the Examples Section. In one embodiment of this assay, the amount of test prodrug that yields a 50% reduction in translation as compared to a control cell (IC50) may be determined.
The inhibitory activity of certain prodrugs of the invention, which may inhibit HCV translation or replication prior to metablism and/or are metabolized into active agents, was confirmed using an HCV replicon assay. The HCV replicon can include such features as the HCV 5′ untranslated region including the HCV IRES, the HCV 3′ untranslated region, selected HCV genes encoding HCV polypeptides, selectable markers, and a reporter gene such as luciferase, GFP, etc. In the assay, actively dividing 5-2 Luc replicon-comprising cells (obtained from Ralf Bartenschlager; see Lohmann et al., 1999, Science 285:110-113) were seeded at a density of between about 5,000 and 7,500 cells/well onto 96 well plates (about 90 µl of cells per well) and incubated at 37° C. and 5% CO2 for 24 hours. Then, the test prodrug (in a volume of about 10 PI) was added to the wells at various concentrations and the cells were incubated for an additional 24-48 hours before luciferase assay. The media was aspirated from each well and Bright-Glo (Promega, Madison, WI) luciferase assay reagents were added to each well according to the manufacturer's instructions. Briefly, the BrightGlo reagent was diluted 1:1 with PBS and 100 µl of diluted reagent was added to each well. After 5 min of incubation at room temperature, luciferin emission was quantified with a luminometer. In this assay, the amount of test prodrug that yielded a 50% reduction in luciferase emission (IC50) was determined. This IC50 value may represent the antiviral activity of the prodrug itself, the activity of prodrug transformed into its active metabolized form, or a combination of the two.
In TABLES 3 through 12, a value of “+” indicates an IC50 of 10 μM or less in the specified assay; a value of “−” indicates an IC50 of greater than 10 μM in the specified assay.
On the technique in general: A replicon is a self-replicating genome or part of one, used to study replication in cells.
One may read the IC50 as the point on the concentration scale where inhibition reaches its midpoint. On to `CC(C)(C)c1oc(=O)oc1CN(C(=O)C(Cl)Cl)c1cccc(-c2cc(-c3c(Cl)cccc3Cl)no2)c1` [compound 1007, 2,2-dichloro-N-[3′-[3′-(2′,6′-dichlorophenyl)-5′-isoxazoyl]phenyl]-N-[(5-t-butyl-1,3-dioxolene-2-one4yl)methylene]acetamide], for which the IC50 was no more than 10 µM.
Still for that read-out and setting: as for `CCOC(=O)C(Cl)(Cl)C(=O)Nc1cccc(-c2cc(-c3c(N4CCOCC4)ccnc3Cl)no2)c1` [compound 54], the figure is greater than 10 µM; as for `COC(=O)C(Cl)(Cl)C(=O)Nc1cccc(-c2cc(-c3c(Cl)cccc3OC)no2)c1` [Cpd. 27, 2′,2′-dichloro-2′-(methoxycarbonyl)-N-[3-[3-(2-chloro-6-methoxyphenyl]5-isoxazoyl]phenyl] acetamide], no more than 10 µM; as for `COC(=O)C(Cl)(Cl)C(=O)Nc1cccc(-c2cc(-c3c(Cl)ccnc3N(C)C)no2)c1` [Cpd. 28], no more than 10 µM.
On the same count and under the same terms, as for `COC(=O)C(Cl)(Cl)C(=O)Nc1cccc(-c2cc(-c3ccccc3C(F)(F)F)no2)c1` [Cpd. 29, 2′,2′-dichloro-2′-(methoxycarbonyl)-N-[3-[3-(2-trifluoromethylphenyl)-5-isoxazoyl]phenyl] acetamide], the figure is no more than 10 µM; as for `Cc1oc(=O)oc1CN(C(=O)C(Cl)Cl)c1cccc(-c2cc(-c3c(Cl)cccc3Cl)no2)c1` [compound 901, 2,2-dichloro-N-[3′-[3′-(2′,6′-dichlorophenyl)-5′-isoxazoyl]phenyl]N-[(5-methyl-1,3-dioxolene-2-one4-yl)methylene] acetamide], no more than 10 µM; as for `CC(C)(C)OC(=O)C(Cl)(Cl)C(=O)Nc1cccc(-c2cc(-c3c(N4CCOCC4)ccnc3Cl)no2)c1` [compound 56], greater than 10 µM.
The same measure, in the same setting: as for `O=C(Nc1cccc(-c2cc(-c3c(Cl)cccc3Cl)no2)c1)C(Cl)(Cl)C(=O)OC1CCCCC1` [Cpd. 13, 2′,2′-dichloro-2′-(cyclohexyloxycarbony)-N-[3-[3-(2,6-dichlorophenyl)-5-isoxazoyl]phenyl] acetamide], the figure is no more than 10 µM.
`Cc1oc(=O)oc1CN(C(=O)C(Cl)Cl)c1ccnc(-c2cc(-c3c(Cl)cccc3Cl)no2)c1` [Cpd. 41, 2,2-dichloro-N-[2′-[3′-(2′,6′-dichlorophenyl)-5′-isoxazoyl](4-pyridyl)]-N-[(5-methyl-1,3-dioxolene-2-one4-yl)methylene] acetamide]: the half-maximal inhibitory concentration (IC50) was no more than 10 µM.
With `CC(=O)C(Cl)(Cl)C(=O)Nc1cccc(-c2cc(-c3c(Cl)cccc3Cl)no2)c1` [Cpd. 10], the IC50 is greater than 10 µM.

Staying with this test, now noted: Table 15; read-out: Replicon (IC50).
Turning to “2′,2′-Dichloro-N-[3-[3-(2-cyclopropyl-6-trifluoromethylphenyl)-5-isoxazolyl]phenyl]N-[2-(4-fluorobenzoyl)ethyl] Acetamide [Cpd. 114a]”, the 50% inhibitory concentration (IC50) is no more than 10 µM.
On to “2′,2′-Dichloro-N-[3-[3-(2-chloro-6-methoxycarbonylphenyl)-5-isoxazolyl]phenyl]-N-[2-(4-fluorobenzoyl)ethyl] Acetamide [Cpd. 133a]”, for which the concentration for half-maximal inhibition (IC50) is no more than 10 µM.
Still for that read-out and setting: as for “2′,2′-Dichloro-N-[3-[3-(2-chloro-6-tbutoxycarbonylphenyl)-5-isoxazolyl]phenyl]N-[2-(4-fluorobenzoyl)ethyl] Acetamide [Cpd. 128a]”, the figure is no more than 10 µM.
With “2′,2′-Dichloro-N-[3-[3-(2,6-dichlorophenyl)-5-isoxazolyl]phenyl]-N-[2-(4-fluorobenzoyl)ethyl] Acetamide [100a]”, the 50% inhibitory concentration (IC50) was no more than 10 µM.
Still for that read-out and setting: as for `O=C(CCCN(C(=O)C(Cl)Cl)c1cccc(-c2cc(-c3c(Cl)cccc3Cl)no2)c1)c1ccccc1` [107a], the figure is no more than 10 µM.

Staying with this test, now noted: Tables 3-12; 50% reduction in luciferase emission, 5-2 Luc replicon cells; read-out: Replicon (IC50).
Take “2′-(diethoxyphosphonyl)-2′,2′-difluoro-N-[3-[3-(2,6-dichlorophenyl)-5-isoxazoyl]phenyl] acetamide [Cpd. 3]”: the half-maximal inhibitory concentration (IC50) is greater than 10 µM.
On the same count and under the same terms, as for `CCOP(=O)(OCC)C(Cl)(Cl)C(=O)Nc1cccc(-c2cc(-c3ccccc3C(F)(F)F)no2)c1` [Cpd. 5], the figure is no more than 10 µM; as for “2′,2′-dichloro-2′-(benzyloxycarbonyl)-N-[3-[3-(2,6-dichlorophenyl)-5-isoxazoyl]phenyl] acetamide [Cpd. 17]”, no more than 10 µM.
